One may read the IC50 as the midpoint of a concentration-inhibition curve.

A value given as a limit tells only on which side of the number the result lay.

This experiment concerns Radical scavenging activity. As to the kind of experiment: Antioxidant activity assessed as DPPH radical scavenging activity after 30 mins. The experiment is classed as functional. In general terms: The DPPH test is a chemical assay of radical scavenging.
Turning to `COc1cc(/C=C/CO)cc(OC)c1O[C@@H]1O[C@H](CO)[C@@H](O)[C@H](O)[C@H]1O` [SYRINGIN], the IC50 was over 500 µM.
Consider `Cc1c(C)c2c(c(C)c1O)CC[C@@](C)(CCC[C@H](C)CCC[C@H](C)CCCC(C)C)O2` [ALPHA-TOCOPHEROL], for which the IC50 was found to be 20.1 µM.
Turning to `COc1ccc(C[C@@H]2C(=O)OC[C@H]2Cc2ccc(O[C@@H]3O[C@H](CO)[C@@H](O)[C@H](O)[C@H]3O)c(OC)c2)cc1OC` [STYRAXLIGNOLIDE F], the half-maximal inhibitory concentration (IC50) is over 500 µM.
`COc1ccc(C[C@@H]2C(=O)OC[C@H]2Cc2ccc(O[C@@H]3O[C@H](CO)[C@@H](O)[C@H](O)[C@H]3O)c(OC)c2)cc1O` [STYRAXLIGNOLIDE C]: the 50% inhibitory concentration (IC50) worked out at 380 µM.
As for `COc1cc(C[C@@H]2C(=O)OC[C@H]2Cc2ccc(O[C@@H]3O[C@H](CO)[C@@H](O)[C@H](O)[C@H]3O)c(OC)c2)ccc1O` [STYRAXLIGNOLIDE D], the figure is 278 µM; as for `CC1(C)CC[C@]2(C)CC=C3[C@]4(C)CC[C@H]5C(C)(C)[C@@H](O)CC[C@]5(C)[C@H]4CC[C@@]3(C)[C@@H]2C1` [TARAXEROL], over 500 µM.
The figure for `COc1cc(C[C@@H]2COC(=O)[C@H]2Cc2ccc(O[C@@H]3O[C@H](CO)[C@@H](O)[C@H](O)[C@H]3O)c(OC)c2)ccc1O` [STYRAXLIGNOLIDE E] is 194 µM.
For `COc1cc([C@@H]2OC[C@@H]3[C@H]2C(=O)O[C@H]3c2ccc3c(c2)OCO3)ccc1O[C@@H]1O[C@H](CO)[C@@H](O)[C@H](O)[C@H]1O` [STYRAXLIGNOLIDE B], the IC50 was over 500 µM.

The values are drawn from ChEMBL document CHEMBL1148964, “New furofuran and butyrolactone lignans with antioxidant activity from the stem bark of Styrax japonica” (J Nat Prod, 2004).
